Where two headings read alike, the source gives them in different places.
How the values were obtained:
[1] = system: TDP-43 inclusions in PC12 cells stably expressing wild type (WT) TDP-43-GFP; assay: Dose response assay for TDP-43 inclusion inhibition; assay type: cell-based; conditions: Rattus norvegicus, PC-12
Protocol: Example 3. Dose Response Assay for TDP-43 Inhibition
Exemplary compounds of the invention were evaluated for efficacy in inhibiting TDP-43 inclusions using a dose response assay. Briefly, PC12 cells stably expressing wild type (WT) TDP-43-GFP were stressed with 15 μM to induce TDP-43 inclusions. The cells were then treated with exemplary compounds of the invention and the inhibitory effect on TDP-43 inclusions was observed using fluorescent microscopy. The ratio of cells with TDP-43 inclusions was calculated based on the total number of cells with detectable GFP expression. A 12-point dose response curve was generated, and the IC50 for each compound tested was determined.

[2] = system: Embryonic mouse hippocampal neurons transduced with TDP-43 EGFP; assay: Neuroprotection assay (dendrite length rescue); assay type: cell-based; conditions: average rescue total dendrite length; compound at 10 times the IC50, treated DIV7, 9, 11, fixed DIV12
Protocol: Example 4. Neuroprotection Assay
1× Hank's balanced salt solution (Ca—/Mg, 500 mL) and 10 mM HEPES, pH 7.25-7.3 (IM stock, 5 mL)
MEM (Earle salts+/Glutamine, 95 mL), FBS (to 2.5%, 2.5 mL), Pen/Strep (1×, 1 mL), glutamine (1×, 1 mL), and D-glucose (0.6% w/v, 0.6 g)
neurobasal media (96 mL), B27 supplement (2 mL), Pen/Strep (1 mL), and glutamine (1 mL).
Embryonic mouse hippocampal neurons were cultured according to Kaech, S. and Banker, G. (2006) Nat Protoc 1:2406-2415 and dissected at […] from CD1 mice. Once all the hippocampi were removed, they were placed in a 15 mL conical Falcon tube on ice and brought to a final volume of 4.5 mL with CMF dissection buffer. 0.5 mL of a 2.5% trypsin-EDTA solution was then added, and the mixture was incubated at 37° C. for 15 min. […] Neurons were traced and analyzed using NeuronJ.
Results of the neuroprotection assay for exemplary compounds of the invention are summarized in Table 1, wherein A represents an average rescue total dendrite length of >150%; B represents an average rescue total dendrite length of 100-149%; C represents an average rescue total dendrite length of 50-99%; D represents an average rescue total dendrite length of 0-49%; E represents an average rescue total dendrite length of <0%; and ND signifies that the average rescue total dendrite length was not determined.

[3] = inhibition of TDP-43 inclusions, PC12 cells expressing WT TDP-43-GFP, 12-point dose response, fluorescent microscopy, read-out: IC50

Row | IC50 [1, 3] | Compound | Average Additive Dendrite Length (%) [2] | IC50 [1]
1 | > 0.5 µM | CCc1cccc(C)c1NS(=O)(=O)c1ccccc1C(=O)N1CCCC1 [Compound 100, N-(2-ethyl-6-methylphenyl)-2-(pyrrolidine-1-carbonyl)-benzenesulfonamide] | C (C represents an average rescue total dendrite length of 50-99%) | 
2 |  | CCc1cccc(C)c1NS(=O)(=O)c1cccnc1 [Compound 102, N-(2-ethyl-6-methylphenyl)pyridine-3-sulfonamide] |  | 0.101 to 0.25 µM
3 | < 0.1 µM | CCc1cccc(C)c1NS(=O)(=O)c1cnccc1C(=O)N1CCCC1 [Compound 101, N-(2-ethyl-6-methylphenyl)-4-(pyrrolidine-1-carbonyl)pyridine-3-sulfonamide] | C (C represents an average rescue total dendrite length of 50-99%) | 
